Measured values published in ChEMBL document CHEMBL1144803, “Nardosinanols A-I and lemnafricanol, sesquiterpenes from several soft corals, Lemnalia sp., Paralemnalia clavata, Lemnalia africana, and Rhytisma fulvum fulvum” (J Nat Prod, 2008).

test: Toxicity in brine shrimp; type: organism-based; settings: artemia, in vivo

SMILES | LC50
CC(=O)[C@H]1C[C@H](O)C2=CCC[C@H](C)[C@@]2(C)[C@H]1C(C)=O [NARDOSINANOL G] | 350 nM
C[C@@H](C=O)[C@H]1C(=O)CCC2=C[C@@H](O)C[C@H](C)[C@]21C [NARDOSINANOL C] | 4000 nM
CC(=O)O[C@H]1C[C@H](O)[C@@]23C(=O)[C@@H](C)[C@@H]1[C@]2(C)[C@@H](C)CC[C@@H]3O [LEMNAFRICANOL] | 320 nM
